Measurements: ChEMBL document CHEMBL1201862, “PubChem BioAssay data set” (2004)
Activity calls are given as the source filed them.

What was measured:
[1] = target: Botulinum neurotoxin type F (Clostridium botulinum, UniProt P30996); test: High-throughput multiplex microsphere dose response for inhibitors of toxin protease, specifically Botulinum neurotoxin light chain F protease, compounds from Cherry Pick 02.; type: functional; conditions: read-out: EC50_MICROM
[2] = target: Arf-GAP with SH3 domain, ANK repeat and PH domain-containing protein 1 (Homo sapiens, UniProt Q9ULH1); type: functional;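 further: biochemical fluorescence polarization dose–response screen measuring inhibition of ASAP1; ASAP1 GAP domain stimulating GTP hydrolysis by truncated human ARF1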
Vero = test: cells; type: functional; conditions: Chlorocebus sabaeus
[3] = target: T1, Probable nicotinate-nucleotide adenylyltransferase (Staphylococcus aureus (strain N315), UniProt P65502); type: functional, Staphylococcus aureus subsp. aureus N315;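 on IC50 Mean: confirmatory dose-response retesting of NadD inhibitor hits first found in an ultra-high-throughput screen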
[4] = target: T1, Probable nicotinate-nucleotide adenylyltransferase; type: functional, Staphylococcus aureus subsp. aureus N315; conditions: read-out: IC50_Mean
Genome polyprotein = Genome polyprotein (dengue virus type 2, UniProt P29990); test: flavivirus cap methylation enzyme inhibition – biochemical, confirmation dose response, primary screen (AID 588689); type: functional
[5] = target: Polyadenylate-binding protein 1 (Homo sapiens, UniProt P11940); test: blockers of PABP interaction with poly(A) – biochemical, fluorescence polarization, […] (AID 2014)
[6] = target: T2, Tyrosine-protein phosphatase non-receptor type 22 (Homo sapiens, UniProt Q9Y2R2); test: lymphoid phosphatase LYP inhibitors – biochemical, selectivity assay for STEP inhibitor project, dose response (AID 624241); type: functional
T2 sequence (Q9Y2R2 whole entry): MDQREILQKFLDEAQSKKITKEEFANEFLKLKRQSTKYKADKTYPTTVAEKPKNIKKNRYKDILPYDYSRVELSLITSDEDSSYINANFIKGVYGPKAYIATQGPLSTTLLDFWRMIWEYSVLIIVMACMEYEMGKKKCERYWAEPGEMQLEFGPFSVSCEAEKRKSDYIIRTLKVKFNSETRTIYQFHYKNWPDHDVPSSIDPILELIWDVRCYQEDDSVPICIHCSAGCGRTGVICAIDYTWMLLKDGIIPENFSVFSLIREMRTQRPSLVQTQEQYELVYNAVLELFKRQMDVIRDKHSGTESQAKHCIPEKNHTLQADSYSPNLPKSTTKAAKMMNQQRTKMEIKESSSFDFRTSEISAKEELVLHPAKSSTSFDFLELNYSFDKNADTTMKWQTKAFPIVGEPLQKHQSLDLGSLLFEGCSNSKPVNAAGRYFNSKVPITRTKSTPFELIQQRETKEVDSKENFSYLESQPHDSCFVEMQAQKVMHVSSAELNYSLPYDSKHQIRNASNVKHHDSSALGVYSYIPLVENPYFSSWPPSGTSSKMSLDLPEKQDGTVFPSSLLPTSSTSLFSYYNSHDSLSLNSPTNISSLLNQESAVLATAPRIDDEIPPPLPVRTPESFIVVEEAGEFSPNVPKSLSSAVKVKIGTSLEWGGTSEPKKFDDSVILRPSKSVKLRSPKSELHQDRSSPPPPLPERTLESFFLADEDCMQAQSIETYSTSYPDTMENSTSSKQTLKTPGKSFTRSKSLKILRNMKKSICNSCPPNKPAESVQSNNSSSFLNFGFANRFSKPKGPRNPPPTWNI

[7] = target: Eukaryotic translation initiation factor 4H (Homo sapiens, UniProt Q15056); test: eIF4H binding inhibition – biochemical, uHTS, fluorescence polarization, translation initiation inhibitor project, primary screen (AID 2012)
[8] = target: Dual specificity protein phosphatase 3 (Homo sapiens, UniProt P51452); test: VHR phosphatase inhibition, dose response, selectivity assay for STEP inhibitor project, biochemical (AID 602374); type: functional; conditions: read-out: IC50_Mean
[9] = target: Tyrosine-protein phosphatase non-receptor type 5 (Homo sapiens, UniProt P54829); test: PTPN5 enzyme inhibition – biochemical, fluorescence intensity, uHTS hits, confirmation (AID 602372); type: functional; conditions: read-out: IC50_Mean
[10] = target: T3, Carboxy-terminal domain RNA polymerase II polypeptide A small phosphatase 1 (Homo sapiens, UniProt Q9GZU7); test: CTDSP1 inhibitors, concentration-response, biochemical, absorbance readout, ultra-high-throughput screen actives (AID 540297); type: functional
T3 sequence (Q9GZU7 whole entry): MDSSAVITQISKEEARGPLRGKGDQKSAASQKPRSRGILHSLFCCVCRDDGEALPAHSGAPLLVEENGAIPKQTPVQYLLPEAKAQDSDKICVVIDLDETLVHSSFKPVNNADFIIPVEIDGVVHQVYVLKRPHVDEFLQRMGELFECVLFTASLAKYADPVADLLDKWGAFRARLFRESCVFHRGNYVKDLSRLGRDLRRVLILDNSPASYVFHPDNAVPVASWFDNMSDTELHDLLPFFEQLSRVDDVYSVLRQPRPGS

[11] = target: Tyrosine-protein phosphatase non-receptor type 11 (Homo sapiens, UniProt Q06124); test: PTPN11 enzyme inhibitors – biochemical, selectivity assay for STEP inhibitor project, dose response (AID 602367); type: functional; conditions: read-out: IC50_Mean
[12] = target: T4, Mitochondrial peptide methionine sulfoxide reductase (Bos taurus, UniProt P54149); type: functional;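 further: absorbance read-out, biochemical high-throughput dose-response screen for MsrA inhibitors, confirmatory; recombinant bovine MsrA coupled to E. coli TrxB with NADPH and selenocystamine; potency is for inhibitors of MsrA activity on DMSO substrate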
T4 sequence (P54149 whole entry): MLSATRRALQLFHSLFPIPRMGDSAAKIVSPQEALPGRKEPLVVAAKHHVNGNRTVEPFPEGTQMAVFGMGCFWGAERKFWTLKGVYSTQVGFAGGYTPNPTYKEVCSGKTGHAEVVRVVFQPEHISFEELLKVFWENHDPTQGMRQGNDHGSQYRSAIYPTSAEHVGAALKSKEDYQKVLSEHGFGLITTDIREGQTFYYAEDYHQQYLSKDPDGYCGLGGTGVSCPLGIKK

[13] = target: T5, Neuropeptide Y receptor type 1 (Homo sapiens, UniProt P25929); type: functional;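 further: HEK293 cells with a CNG channel challenged with NPY then isoproterenol; potency as antagonist that reverses NPY suppression of cAMP signal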
T5 sequence (P25929 whole entry): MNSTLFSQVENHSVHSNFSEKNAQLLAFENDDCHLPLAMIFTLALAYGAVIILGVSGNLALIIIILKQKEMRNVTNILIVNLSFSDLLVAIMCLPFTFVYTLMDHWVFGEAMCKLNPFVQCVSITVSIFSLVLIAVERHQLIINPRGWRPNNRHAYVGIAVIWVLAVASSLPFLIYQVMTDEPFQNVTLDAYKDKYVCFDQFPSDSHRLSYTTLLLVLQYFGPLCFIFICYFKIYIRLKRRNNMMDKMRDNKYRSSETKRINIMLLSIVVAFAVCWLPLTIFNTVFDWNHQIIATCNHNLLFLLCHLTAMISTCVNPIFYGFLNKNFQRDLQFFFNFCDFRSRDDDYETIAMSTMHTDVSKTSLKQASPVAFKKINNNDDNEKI

[14] = target: T6, Neuropeptide Y receptor type 2 (Homo sapiens, UniProt P49146); type: functional, cell-based;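 further: HEK293 cells expressing the receptor and a CNG channel; stimulus was NPY near EC95 followed by isoproterenol to raise cAMP; antagonist potency measured as restoring cAMP signal that NPY suppresses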
T6 sequence (P49146 whole entry): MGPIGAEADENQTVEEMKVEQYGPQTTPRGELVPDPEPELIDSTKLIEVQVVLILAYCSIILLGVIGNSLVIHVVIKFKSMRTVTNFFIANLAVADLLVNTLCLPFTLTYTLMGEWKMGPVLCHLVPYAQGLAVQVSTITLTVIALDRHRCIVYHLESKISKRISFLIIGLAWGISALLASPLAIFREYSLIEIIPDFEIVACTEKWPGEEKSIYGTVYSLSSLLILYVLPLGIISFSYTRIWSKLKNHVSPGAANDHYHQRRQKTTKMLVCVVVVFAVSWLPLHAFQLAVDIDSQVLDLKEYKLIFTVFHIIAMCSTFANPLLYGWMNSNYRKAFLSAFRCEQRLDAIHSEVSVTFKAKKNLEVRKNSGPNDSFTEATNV

T1 sequence (P65502 whole entry): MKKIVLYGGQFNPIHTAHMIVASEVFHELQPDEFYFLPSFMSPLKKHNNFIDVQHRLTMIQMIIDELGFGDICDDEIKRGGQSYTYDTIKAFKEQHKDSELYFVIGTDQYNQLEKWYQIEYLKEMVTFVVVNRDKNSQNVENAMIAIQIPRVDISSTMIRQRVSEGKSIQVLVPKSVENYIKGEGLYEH
Tyrosine-protein phosphatase non-receptor type 5, sequence (P54829 whole entry, the tested form may be a part): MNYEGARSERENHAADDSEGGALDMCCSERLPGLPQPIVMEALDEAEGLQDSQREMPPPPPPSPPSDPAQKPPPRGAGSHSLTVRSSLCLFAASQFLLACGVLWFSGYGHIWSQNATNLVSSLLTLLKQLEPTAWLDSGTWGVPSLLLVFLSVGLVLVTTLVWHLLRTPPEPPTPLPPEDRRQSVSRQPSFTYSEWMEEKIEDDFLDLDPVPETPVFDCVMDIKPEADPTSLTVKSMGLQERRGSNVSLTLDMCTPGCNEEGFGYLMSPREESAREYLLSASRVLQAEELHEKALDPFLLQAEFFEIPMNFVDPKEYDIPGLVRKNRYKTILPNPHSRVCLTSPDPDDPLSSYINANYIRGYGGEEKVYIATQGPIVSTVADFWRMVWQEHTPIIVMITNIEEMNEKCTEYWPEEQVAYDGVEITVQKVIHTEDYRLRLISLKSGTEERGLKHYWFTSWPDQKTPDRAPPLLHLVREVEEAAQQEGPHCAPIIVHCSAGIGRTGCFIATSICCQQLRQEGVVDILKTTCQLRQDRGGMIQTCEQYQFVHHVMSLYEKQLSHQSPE
Botulinum neurotoxin type F, sequence (P30996 1-436 limits assumed): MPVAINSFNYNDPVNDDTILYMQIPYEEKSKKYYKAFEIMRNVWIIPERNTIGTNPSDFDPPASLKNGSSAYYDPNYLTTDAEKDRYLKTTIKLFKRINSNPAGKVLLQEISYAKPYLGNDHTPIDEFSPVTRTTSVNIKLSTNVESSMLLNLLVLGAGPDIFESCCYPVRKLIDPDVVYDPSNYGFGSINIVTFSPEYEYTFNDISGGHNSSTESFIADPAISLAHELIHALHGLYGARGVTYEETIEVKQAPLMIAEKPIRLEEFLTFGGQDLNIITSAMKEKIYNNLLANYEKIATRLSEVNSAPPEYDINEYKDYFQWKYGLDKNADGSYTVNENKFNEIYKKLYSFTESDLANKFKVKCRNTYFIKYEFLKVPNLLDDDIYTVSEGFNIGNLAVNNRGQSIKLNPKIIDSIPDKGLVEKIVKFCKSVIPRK
Polyadenylate-binding protein 1, sequence (P11940 whole entry): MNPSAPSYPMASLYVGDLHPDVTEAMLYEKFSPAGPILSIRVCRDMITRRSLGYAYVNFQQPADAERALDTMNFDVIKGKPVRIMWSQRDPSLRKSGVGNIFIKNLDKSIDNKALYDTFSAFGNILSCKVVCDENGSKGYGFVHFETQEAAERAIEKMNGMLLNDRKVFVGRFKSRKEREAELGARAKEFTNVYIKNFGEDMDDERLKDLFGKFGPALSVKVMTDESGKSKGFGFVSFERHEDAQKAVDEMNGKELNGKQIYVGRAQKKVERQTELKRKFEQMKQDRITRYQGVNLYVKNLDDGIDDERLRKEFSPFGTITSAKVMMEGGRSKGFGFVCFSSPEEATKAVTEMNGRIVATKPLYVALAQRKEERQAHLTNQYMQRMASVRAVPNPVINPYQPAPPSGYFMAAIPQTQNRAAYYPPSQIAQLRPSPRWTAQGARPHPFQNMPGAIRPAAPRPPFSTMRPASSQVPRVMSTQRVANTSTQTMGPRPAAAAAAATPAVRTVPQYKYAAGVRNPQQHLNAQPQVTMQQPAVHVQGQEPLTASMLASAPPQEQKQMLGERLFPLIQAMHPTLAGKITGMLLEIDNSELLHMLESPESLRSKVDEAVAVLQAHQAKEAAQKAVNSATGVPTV
Arf-GAP with SH3 domain, ANK repeat and PH domain-containing protein 1, sequence (Q9ULH1 whole entry, the tested form may be a part): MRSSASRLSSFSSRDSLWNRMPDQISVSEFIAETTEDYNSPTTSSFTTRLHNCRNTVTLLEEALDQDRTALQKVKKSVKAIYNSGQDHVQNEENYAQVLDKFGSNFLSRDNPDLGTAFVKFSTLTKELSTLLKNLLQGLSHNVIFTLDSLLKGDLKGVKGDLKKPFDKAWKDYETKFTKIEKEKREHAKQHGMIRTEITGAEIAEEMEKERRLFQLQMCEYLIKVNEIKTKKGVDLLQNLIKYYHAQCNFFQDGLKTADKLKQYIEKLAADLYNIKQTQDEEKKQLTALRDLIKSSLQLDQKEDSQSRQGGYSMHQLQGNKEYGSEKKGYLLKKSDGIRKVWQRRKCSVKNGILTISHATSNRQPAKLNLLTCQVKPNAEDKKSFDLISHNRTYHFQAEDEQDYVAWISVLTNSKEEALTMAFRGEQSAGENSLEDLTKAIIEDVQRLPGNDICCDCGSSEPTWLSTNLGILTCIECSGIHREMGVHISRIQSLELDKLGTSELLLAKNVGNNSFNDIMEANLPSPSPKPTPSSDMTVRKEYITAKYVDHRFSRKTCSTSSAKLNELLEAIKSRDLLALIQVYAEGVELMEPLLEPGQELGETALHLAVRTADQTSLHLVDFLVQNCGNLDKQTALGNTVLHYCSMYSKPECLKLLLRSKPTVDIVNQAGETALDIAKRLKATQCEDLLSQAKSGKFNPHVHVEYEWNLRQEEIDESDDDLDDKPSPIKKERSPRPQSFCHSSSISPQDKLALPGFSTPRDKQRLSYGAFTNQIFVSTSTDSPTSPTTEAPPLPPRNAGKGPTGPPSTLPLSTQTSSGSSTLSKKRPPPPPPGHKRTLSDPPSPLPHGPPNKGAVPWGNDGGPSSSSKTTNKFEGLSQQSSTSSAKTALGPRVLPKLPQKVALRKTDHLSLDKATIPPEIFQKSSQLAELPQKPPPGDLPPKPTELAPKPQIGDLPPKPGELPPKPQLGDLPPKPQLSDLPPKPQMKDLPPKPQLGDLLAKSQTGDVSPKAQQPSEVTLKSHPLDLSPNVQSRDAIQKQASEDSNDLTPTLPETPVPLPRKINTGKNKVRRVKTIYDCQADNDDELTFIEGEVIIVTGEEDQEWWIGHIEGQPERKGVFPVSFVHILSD
Tyrosine-protein phosphatase non-receptor type 11, sequence (Q06124 whole entry): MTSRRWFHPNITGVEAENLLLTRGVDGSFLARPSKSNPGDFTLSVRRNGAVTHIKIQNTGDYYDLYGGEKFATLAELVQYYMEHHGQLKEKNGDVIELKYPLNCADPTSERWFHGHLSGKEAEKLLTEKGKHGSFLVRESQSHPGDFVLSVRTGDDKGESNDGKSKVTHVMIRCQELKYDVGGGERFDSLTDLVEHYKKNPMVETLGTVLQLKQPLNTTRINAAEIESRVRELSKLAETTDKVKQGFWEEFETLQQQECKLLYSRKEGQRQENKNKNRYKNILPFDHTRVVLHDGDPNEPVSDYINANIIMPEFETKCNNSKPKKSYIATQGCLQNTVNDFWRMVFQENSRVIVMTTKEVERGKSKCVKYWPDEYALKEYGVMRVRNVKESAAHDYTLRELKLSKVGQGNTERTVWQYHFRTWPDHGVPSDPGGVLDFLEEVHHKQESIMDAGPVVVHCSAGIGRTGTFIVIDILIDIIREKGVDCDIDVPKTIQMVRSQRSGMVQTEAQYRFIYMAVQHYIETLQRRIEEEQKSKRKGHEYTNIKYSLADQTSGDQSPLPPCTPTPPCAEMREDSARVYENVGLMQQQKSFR
Dual specificity protein phosphatase 3, sequence (P51452 whole entry): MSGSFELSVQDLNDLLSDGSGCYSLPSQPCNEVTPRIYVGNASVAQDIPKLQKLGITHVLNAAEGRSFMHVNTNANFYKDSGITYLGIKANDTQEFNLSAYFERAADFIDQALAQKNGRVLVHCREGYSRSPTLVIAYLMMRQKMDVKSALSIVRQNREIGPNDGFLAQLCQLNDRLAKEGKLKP
Genome polyprotein, sequence (P29990 2492-3391 limits assumed): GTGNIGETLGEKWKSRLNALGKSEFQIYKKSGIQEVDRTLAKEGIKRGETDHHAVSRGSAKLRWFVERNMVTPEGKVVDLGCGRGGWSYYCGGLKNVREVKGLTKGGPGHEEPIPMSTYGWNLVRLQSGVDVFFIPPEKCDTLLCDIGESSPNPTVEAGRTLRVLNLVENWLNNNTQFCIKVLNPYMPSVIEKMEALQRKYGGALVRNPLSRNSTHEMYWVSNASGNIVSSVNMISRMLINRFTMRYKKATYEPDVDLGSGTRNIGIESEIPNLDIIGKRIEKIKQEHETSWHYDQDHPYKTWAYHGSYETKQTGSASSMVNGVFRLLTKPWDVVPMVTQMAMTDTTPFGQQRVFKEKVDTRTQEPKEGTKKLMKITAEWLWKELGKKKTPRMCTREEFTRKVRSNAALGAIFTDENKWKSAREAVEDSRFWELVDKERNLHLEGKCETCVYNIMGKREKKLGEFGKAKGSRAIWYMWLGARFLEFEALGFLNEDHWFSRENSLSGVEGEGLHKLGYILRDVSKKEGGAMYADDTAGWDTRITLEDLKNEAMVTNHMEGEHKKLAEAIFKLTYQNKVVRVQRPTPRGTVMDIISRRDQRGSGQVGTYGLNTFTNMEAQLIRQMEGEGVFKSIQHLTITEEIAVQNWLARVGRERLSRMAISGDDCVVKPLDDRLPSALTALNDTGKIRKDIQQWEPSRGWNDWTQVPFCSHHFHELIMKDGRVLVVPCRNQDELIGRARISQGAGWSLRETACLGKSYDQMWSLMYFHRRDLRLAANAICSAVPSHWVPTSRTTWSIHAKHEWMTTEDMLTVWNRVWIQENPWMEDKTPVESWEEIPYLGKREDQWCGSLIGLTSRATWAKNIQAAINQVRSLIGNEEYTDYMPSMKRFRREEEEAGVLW

For Cc1nc2ccc(NC(=O)[C@@H](NC(=O)c3c(F)cccc3F)C(C)C)cc2s1, which EC50 [1] is on record?
Its EC50 is > 20 µM (inactive).

With COCCn1cnc2c(c1=O)c1nc3ccccc3nc1n2/N=C/c1ccc(OC)c(OC)c1 as the compound, how does the IC50 [2] read?
The IC50 was 41.7 µM (inactive).

And the CC50 (Vero)?
Its CC50 is 23.5 µM (active).

Which IC50 [3] does the source give for O=C(NNS(=O)(=O)c1ccc2ccccc2c1)c1cc(-c2ccccn2)nc2ccccc12 here?
The IC50 was 11.7 µM (active).

What about the IC50 [4] of the same compound?
Its IC50 is 28.9 µM (active).

For COc1ccc(/C=N/NC2=NC(=O)C(CC(=O)O)S2)cc1OCc1ccc(Cl)cc1Cl (stereo unspecified), which IC50 (Genome polyprotein) is on record?
The IC50 was 59.4 µM (active).

What about the IC50 [5] of the same compound?
The IC50 was 64.3 µM (active).

What about the IC50 [6] of the same compound?
The IC50 was 33.8 µM (inactive).

And the IC50 [7]?
The IC50 was 14.7 µM (active).

And the IC50 [8]?
The IC50 was 4.79 µM (active).

What about the IC50 [9] of the same compound?
The IC50 was 9.72 µM (active).

What about the IC50 [10] of the same compound?
The IC50 was 4.48 µM (active).

What about the IC50 [11] of the same compound?
Its IC50 is 4.42 µM (active).

With CCc1nnc(S)n1/N=C/c1cc(Br)c(OC)cc1OC as the compound, how does the IC50 [12] read?
The IC50 was 155 µM (inactive).

What about the IC50 [13] of the same compound?
The IC50 was > 35 µM (not active).

What about the IC50 [14] of the same compound?
The IC50 was > 35 µM (not active).
